From US20100015245A1, “Combination of Copper Cations with Peroxides or Quaternary Ammonium Compounds for the Treatment of Biofilms” (priority 2008, published 2010) come the findings set out here.

The subject of assay [1] is P. aeruginosa ATCC 15442 biofilms. The assay is described as follows: High-throughput biofilm susceptibility screening with checkerboard plates (Calgary Biofilm Device), OD650 endpoint. The assay is classed as cell-based, Pseudomonas aeruginosa.
The test system of assay [2] is P. aeruginosa ATCC 27853 biofilms. The assay is described as follows: Confocal-laser scanning microscopy (CLSM) with Live/Dead staining of biofilms. The assay is classed as cell-based, Pseudomonas aeruginosa. The settings on record: 8 mM Cu^2+ and/or 200 ppm Polycide®, qualitative. On the procedure: Confocal-laser scanning microscopy (CLSM). Pegs were broken from the lid of the CBD using needle nose pliers. Cell viability staining of P. aeruginosa ATCC 27853 biofilms using the Live/Dead® BacLight™ Kit (Molecular Probes, Burlington, ON, Canada) was carried out according to the method as previously described (Harrison et al., 2007). Here, biofilms exposed to metals and/or biocides were rinsed twice with 0.9% saline and then stained with Syto-9 and propidium iodide at 30° C. for 30 min. Fluorescently labeled biofilms were placed in two drops of 0.9% saline on the surface of a glass coverslip. These pegs were examined using a Leica DM IRE2 spectral confocal and multiphoton microscope with a Leica TCS SP2 acoustic optical beam splitter (AOBS) (Leica Microsystems, Richmond Hill, ON, Canada) as previously described (Harrison el al., 2007). To eliminate artefacts associated with single wavelength excitation, Live/Dead® stained samples were sequentially scanned, frame-by-frame, first at 488 nm and then at 543 nm. Fluorescence emission was then sequentially collected in the green and red regions of the spectrum. […]
Up to this point, the inventors have assessed the antimicrobial action of Cu^2+ and Polycide® using viable cell counting; however, there is an alternate method of assessing biofilm cell survival: CLSM in conjunction with Live/Dead® staining. […]

For assay [3], the system named is microaerobic cultures of P. aeruginosa ATCC 15442. The assay is described as follows: Cell survival of microaerobic (anaerobic) planktonic cultures. The assay is classed as cell-based, Pseudomonas aeruginosa. Conditions: 1 mM CuSO4 and/or 25 ppm Polycide®, 48 h at 37° C., BHI broth. As for the experimental part: (§1) FIGS. 6A-C. Cell survival and nitrate (NO3) reduction by anaerobic P. aeruginosa ATCC 15442 cultures grown in the presence of Cu^2+ and Polycide®, alone and in combination. An aerobic starter culture was grown overnight in TSB and this was diluted 1 in 500 to get a starting cell count of 1×10^7 CFU/mL for anaerobic cultures. These cells were grown in BHI broth, with and without the addition of 1 mM KNO3, for 6 h prior to the addition of 1 mM CuSO4, 25 ppm Polycide , or 1 mM CuSO4+25 ppm Polycide®. Following an additional 48 h incubation at 37° C., aliquots were removed to determine (FIG. 6A) mean viable cell counts and (FIG. 6B) log-killing. Remaining cells from anaerobic cultures were lysed and fractionated into cytosolic and membrane components. The cytosolic components were assayed for (FIG. 6C) nitrate reductase (NR) activity. In this figure, each bar represents the mean and standard deviation of 3 to 8 independent replicates. NR activity calculations were corrected for baseline shifts in spectrophotometric measurements caused by the presence of oxygen in water, which reacts with reduced methyl viologen over time.
Strains and growth media. All of the microbial strains used in this study are summarized in TABLE 1 and all were stored at −70° C. in Microbank™ vials (ProLab Diagnostics, Toronto, Canada) according to the manufacturer's directions. […]

Assay [4] concerns nitrate reductase (NR). The assay is described as follows: Nitrate reductase activity of cytosolic fractions of treated cultures (methyl viologen assay). The assay is classed as biochemical, Pseudomonas aeruginosa. The settings on record: cells grown with 1 mM CuSO4 and/or 25 ppm Polycide®. On the procedure:
as §1
Protein fractionation and nitrate reduction assays. […] Nitrate reductase activity was determined spectrophotometrically at 575 nm for cytoplasmic fractions, using methyl viologen as an electron donor, as previously described (Jones et al., 1977; Magalon et al., 1998).

[5] abbreviates: 5 min exposure, double distilled water, single agent, median.
Setting [6] is: 30 min exposure, double distilled water, single agent, median.
Where [7] appears, read: 24 h exposure, 10% tryptic soy broth/0.9% NaCl, single agent, median.

Several values for one entry are separate records, joined by “and”; a condition that tells them apart may be missing. Equal entries are not always repeated. Where two headings read alike, the source gives them in different places. Bounds are passed on as bounds.

As to `O=[N+]([O-])[O-].[Ag+]` [Ag^+, silver nitrate], the “Biofilm minimum bactericidal concentration (MBCb)” value in assay [1] (setting [5]), in assay [1] (setting [6]) and in assay [1] (setting [7]) was more than 19 mM throughout.

`O=S(=O)([O-])[O-].[Cu+2]` [Cu^2+, cupric sulfate]: in assay [1], the “Biofilm minimum bactericidal concentration (MBCb)” value was >32 mM and 32 mM. Moreover, the “Bacterial cell survival in biofilms by Live/Dead staining” value in assay [2] was “killed a significant portion of the bacterial population”. The “Effect on microaerobic cultures (viable cell counts, log-killing)” value in assay [3] is on record as “bacteriostatic”. In addition, in assay [4], the “Nitrate reduction capacity / NR activity of cell lysates” value is listed as “significantly reduced capacity for nitrate reduction”.

In the case of `CC(C)O` [Isopropyl Alcohol, Isopropyl alcohol], the “Biofilm minimum bactericidal concentration (MBCb)” value in assay [1] (setting [5]), in assay [1] (setting [6]) and in assay [1] (setting [7]) was 0.50% in each case.

Take `O=[Se]([O-])[O-].[Na+].[Na+]` [SeO3^2−, Sodium selenite]: the “Biofilm minimum bactericidal concentration (MBCb)” value in assay [1] (setting [5]), in assay [1] (setting [6]) and in assay [1] (setting [7]) was more than 16 mM each time.

In the case of `O=S(=O)([O-])[O-].[Zn+2]` [Zn^2 +, zinc sulfate], in assay [1], the “Biofilm minimum bactericidal concentration (MBCb)” value is recorded as more than 31 mM.
